# According to patent US20060079453A1, “Hla binding peptides and their uses” (priority 2002, published 2006):
# Read-outs that look alike come from different tables or passages of the source. No end group written: not given here.
# Experiments:
# Experiment in all cases: biochemical
# Assay type in all cases: binding
# HLA-DR DRB1*1302 (DR13) = HLA-DR DRB1*1302 (DR13) (Homo sapiens, UniProt P01903+P01911, A100E/A169T/K41T/L162R/M171V/P40S/Q125H/Q178H/Q39Y/Q99D/R42S/S66N/T262R/V115G/W38E/Y61H)
# HLA-DR DRB1*1501 (DR15) = HLA-DR DRB1*1501 (DR15) (Homo sapiens, UniProt P01903+P01911)
# HLA-DR DRB3*0101 (DR52) = HLA-DR DRB3*0101 (DR52) (Homo sapiens, UniProt P01903+P79483)
# HLA-DR DRB4*0101 (DR53) = HLA-DR DRB4*0101 (DR53) (Homo sapiens, UniProt P01903+P13762, G164S)
# HLA-DR DRB5*0101 (DR51) = HLA-DR DRB5*0101 (DR51) (Homo sapiens, UniProt P01903+Q30154)
# HLA-DR DRB1*1101 (DR11) = HLA-DR DRB1*1101 (DR11) (Homo sapiens, UniProt P01903+P01911, A100R/A169T/A87E/I96F/K41T/L162R/M171V/P40S/Q125H/Q178H/Q39Y/Q99D/R42S/S66Y/T262R/V115G/W38E)
# HLA-DR DRB1*0101 (DR1) = HLA-DR DRB1*0101 (DR1) (Homo sapiens, UniProt P01903+P01911, A100R/D57E/F55L/F60I/F76Y/I96L/L162R/M171V/P40L/Q125E/R42F/V115G/Y59C); details: read-out: DRB1 *0101
# HLA-DR DRB1*0301 (DR3) = HLA-DR DRB1*0301 (DR3) (Homo sapiens, UniProt P01903+P01911, A100K/A102G/A103R/A169T/F55Y/I96L/K41T/L162R/M171V/P40S/Q125H/Q178H/Q39Y/R42S/S66N/T106N/T262R/W38E/Y61H)
# HLA-DR DRB1*0701 (DR7) = HLA-DR DRB1*0701 (DR7) (Homo sapiens, UniProt P01903+P01911, A100R/A102G/A103Q/D57E/D86V/E43K/F76Y/K127E/L162R/M171V/P40G/Q125H/Q99D/R33Q/R42Y/R54Q/S133A/S66F/T210M/V115G/Y107V/Y59L/Y89S)
# HLA-DR DRB1*0802 (DR8) = HLA-DR DRB1*0802 (DR8) (Homo sapiens, UniProt P01903+P01911, A100R/A103L/A169T/F76Y/H45Y/I96F/K41T/L162R/M171V/P40S/Q125H/Q178H/Q39Y/Q99D/R218S/R42G/S66Y/V115G/W38E)
# HLA-DR DRB1*0901 (DR9) = HLA-DR DRB1*0901 (DR9) (Homo sapiens, UniProt P01903+P01911, A100R/A103E/D57H/D86V/F55Y/F60I/F76Y/I96F/K127E/L162R/M171V/P40D/Q125H/Q99R/R33Q/R42F/S133A/S66N/T210M/V115G/W38K/Y107V/Y59G/Y89S)
# HLA-DR DRB1*0401 (DR4) = HLA-DR DRB1*0401 (DR4) (Homo sapiens, UniProt P01903+P01911, A100K/A169T/F76Y/I96L/K127E/L162R/M171V/N62H/P40V/Q125Y/R42H/S133A/S149N/S66Y/V115G/V209L/W38E); details: DRB1 *0401
# Chain of HLA-DR DRB1*1101 (DR11) (P01903 26-254 limits assumed, other chains not shown): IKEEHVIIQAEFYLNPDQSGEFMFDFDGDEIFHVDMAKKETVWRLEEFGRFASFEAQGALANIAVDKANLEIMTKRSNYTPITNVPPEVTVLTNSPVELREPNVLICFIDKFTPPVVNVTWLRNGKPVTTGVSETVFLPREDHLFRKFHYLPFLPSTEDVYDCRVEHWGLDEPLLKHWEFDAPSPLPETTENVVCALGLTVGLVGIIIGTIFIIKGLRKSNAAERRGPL
# Chain of HLA-DR DRB1*1302 (DR13) (P01903 26-254 limits assumed, other chains not shown): as above
# Chain of HLA-DR DRB1*0301 (DR3) (P01903 26-254 limits assumed, other chains not shown): as above
sequence,measurement,setting,value
RLFDNAMLRAHRLHQ,IC50,HLA-DR DRB1*1302 (DR13); read-out: DRBI *1302,738 nM
same,IC50,HLA-DR DRB1*1501 (DR15); read-out: DRBI *1501,18 nM
same,IC50,HLA-DR DRB3*0101 (DR52); read-out: DRB3 *0101,> 270000 nM
same,IC50,HLA-DR DRB4*0101 (DR53); read-out: DRB4 *0101,1630 nM
same,IC50,HLA-DR DRB5*0101 (DR51); read-out: DRB5 *0101,58 nM
MSAMTALAALFPPEG,IC50,HLA-DR DRB1*1101 (DR11); read-out: DRB1 *1101,> 200000 nM
same,IC50,HLA-DR DRB3*0101 (DR52); read-out: DRB3 *0101,7160 nM
same,IC50,HLA-DR DRB5*0101 (DR51); read-out: DRB5 *0101,63200 nM
RGGMVFELANSIYLP,IC50,HLA-DR DRB1*0101 (DR1),10 nM
same,IC50,HLA-DR DRB1*0301 (DR3); read-out: DRB1 *0301,37100 nM
same,IC50,HLA-DR DRB1*0701 (DR7); read-out: DRB1 *0701,41 nM
same,IC50,HLA-DR DRB1*0802 (DR8); read-out: DRB1 *0802,8680 nM
same,IC50,HLA-DR DRB1*0901 (DR9); read-out: DRB1 *0901,33 nM
FAGIRRDGLLLRIVD,IC50,HLA-DR DRB1*1501 (DR15); read-out: DRBI *1501,28 nM
same,IC50,HLA-DR DRB3*0101 (DR52); read-out: DRB3 *0101,553 nM
LMAFTAAVTS,IC50,HLA-DR DRB1*0301 (DR3),> 74000 nM
same,IC50,HLA-DR DRB1*0401 (DR4),321 nM
same,IC50,HLA-DR DRB1*0701 (DR7); DRB1 *0701,240 nM
same,IC50,HLA-DR DRB1*0802 (DR8),> 40600 nM
same,IC50,HLA-DR DRB1*0901 (DR9); DRB1 *0901,160 nM
same,IC50,HLA-DR DRB1*1101 (DR11); DRB1 *1101,> 23300 nM
same,IC50,HLA-DR DRB1*1302 (DR13); DRBI *1302,> 2460 nM
same,IC50,HLA-DR DRB1*1501 (DR15); DRBI *1501,1930 nM
same,IC50,HLA-DR DRB4*0101 (DR53); DRB4 *0101,11700 nM
same,IC50,HLA-DR DRB5*0101 (DR51); DRB5 *0101,> 12600 nM
GAAVVHEIVRSFGTL,IC50,HLA-DR DRB3*0101 (DR52),788 nM
FPTIPLSRLFDNAML,IC50,HLA-DR DRB1*1101 (DR11); read-out: DRB1 *1101,46400 nM
same,IC50,HLA-DR DRB1*1302 (DR13); read-out: DRBI *1302,9310 nM
same,IC50,HLA-DR DRB1*1501 (DR15); read-out: DRBI *1501,2770 nM
same,IC50,HLA-DR DRB3*0101 (DR52); read-out: DRB3 *0101,121000 nM
ALQAQKEAISPPDAA,IC50,HLA-DR DRB3*0101 (DR52); read-out: DRB3 *0101,> 91700 nM
AVGLPSIPVHPIGYY,IC50,HLA-DR DRB1*1101 (DR11); read-out: DRB1 *1101,33300 nM
same,IC50,HLA-DR DRB1*1501 (DR15); read-out: DRBI *1501,518 nM
same,IC50,HLA-DR DRB3*0101 (DR52); read-out: DRB3 *0101,> 11800 nM
same,IC50,HLA-DR DRB4*0101 (DR53); read-out: DRB4 *0101,5390 nM
same,IC50,HLA-DR DRB5*0101 (DR51); read-out: DRB5 *0101,38500 nM
